Reference: US8455501B2, “N-(5-cycloalkyl)-pyridin-3-yl carboxamides” (Hoffmann-La Roche Inc, priority 2011, dated 2013)

Columns and labels:
ABCA1 protein = assay: Detection of upregulation of ABCA1 protein in cells (ApoA-I binding, High Content Image Analysis); assay type: cell-based; conditions: THP-1 macrophage cells, 24 hrs with compound
Procedure: Detection of upregulation of ABCA1 protein in cells
The ability of compounds of the invention to increase the level of ABCA1 protein is determined in replicate cultures of THP-1 macrophage cells in 96-well microplates. Cells are plated at an initial density of 100,000 cells/well in 100 μl medium and differentiated to adherent macrophages with the addition of PMA (100 nM) for 68 hrs in 10% fetal bovine serum, 3 μl/L of b-mercaptoethanol, RPMI-1640 medium. Then, cells are incubated with RPMI-1640 medium containing 1% FCS, 25 μg/ml acetylated LDL, for 24 hours at 37° C. Following incubation with acetylated LDL, cells are washed twice with 50 μl PBS and incubated with 100 μl of RPMI-1640 medium containing the compound of interest solubilized in DMSO for an additional 24 hrs. The final DMSO concentration in presence of cells is maintained at 0.5%. ApoA-I binding assay using High Content Image Analysis is initiated by replacing with fresh medium, RPMI without Phenol Red, 0.2% BSA containing AlexaFluor®647 labeled ApoA-I for 2 h/37° C./5% CO2. Then, cells are fixed with 4% Formaldehyde in PBS (15 min, RT). Following Nuclei are stained with Hoechst solution (3 μM PBS) and Cytoplasm with Cell Mask Blue (2 μg/ml PBS), 15 min, RT. Finally the stained cells are fixed with a second round of formaldehyde treatment. Fixed stained cells are washed and kept in PBS at 4° C. and can be read immediately until one month after preparation.
The Alexa Fluor 647-labeled Apolipoprotein A-I (20 nM) was prepared as follows: Human recombinant Apolipoprotein A-I (ApoA-I) was exchanged to a buffer of 0.02 M NaHCO3 at pH 8.2 on an NAP desalting column (GE Healthcare) and brought to a concentration to 40 μM (1.13 mg/ml) by adjustment with the same buffer. The ApoA-I was fluorescently labeled by incubation with Alexa Fluor carboxylic acid succimidyl ester (Alexa Fluor 647, Invitrogen A-20006) at a 2:1 molar ratio (Alexa to ApoA-I) for 1 h under shaking at RT. The remaining unconjugated label was removed by buffer exchange to 0.02M NaHCO3 at pH 8.2.
Imaging and data collection were performed on an OPERA confocal microplate imaging reader using a 20× water immersion objective and UV360 or 405 laser to identify the cell nuclei and a 635 laser to identify the fluorescent ApoA-I. Eight fields of view are captured per well. Image capture and analysis was performed with the Acapella software. Background fluorescence detected in control wells without ApoA-I was subtracted.
Using XLfit3 program (ID Business Solutions Ltd. UK), the model 205 for Dose Response One Site is used to calculate the EC50 values. […] Particularly, the compounds of the present invention have EC50 values in a range of 0.1 μM to 3 μM.

human CB1 receptor = biological target: T1, human CB1 receptor (Homo sapiens, UniProt P21554); assay: CB1 receptor affinity, displacement of [3H]-CP-55,940; assay type: binding; conditions: HEK cell membranes, radioligand [3H]-CP-55,940
T1 construct: expressed in transfected cells; host or cells: human embryonic kidney (HEK) cells, Semliki Forest Virus system, membrane preparation
Procedure: (§1) CB1 and CB2 Receptor Affinity
(§2) The affinity of the compounds of the invention for cannabinoid receptors was determined using membrane preparations of human embryonic kidney (HEK) cells in which the human CB1 receptor is transiently transfected using a Semliki Forest Virus system in conjunction with [3H]-CP-55,940 as radioligand. After incubation of freshly prepared cell membrane preparation with the [^3H]-ligand, with or without addition of compounds of the invention, separation of bound and free ligand was performed by filtration over glass fiber filters. Radioactivity on the filter was measured by scintillation counting.
(§3) The ability of the compounds to displace the radioligand [^3H]-CP-55,940 was measured at a concentration of 10 μM and values provided as [% inhibition @10 μM] both for the CB1 and CB2 receptor assay, The lower % inhibition is, the lower the likelihood of side effects based on CB1 or CB2 receptor inhibition is.

human CB2 receptor = biological target: T2, human CB2 receptor (Homo sapiens, UniProt P34972); assay: CB2 receptor affinity, displacement of [3H]-CP-55,940; assay type: binding; conditions: HEK cell membranes, radioligand [3H]-CP-55,940
T2 construct: expressed in transfected cells; host or cells: human embryonic kidney (HEK) cells, Semliki Forest Virus system, membrane preparation
Procedure: as §1
as §2, with “cannabinoid CB2” for “cannabinoid”, “CB2” for “CB1”, “[^3H]-CP-55,940” for “[3H]-CP-55,940”
as §3

T2 sequence (P34972 whole entry): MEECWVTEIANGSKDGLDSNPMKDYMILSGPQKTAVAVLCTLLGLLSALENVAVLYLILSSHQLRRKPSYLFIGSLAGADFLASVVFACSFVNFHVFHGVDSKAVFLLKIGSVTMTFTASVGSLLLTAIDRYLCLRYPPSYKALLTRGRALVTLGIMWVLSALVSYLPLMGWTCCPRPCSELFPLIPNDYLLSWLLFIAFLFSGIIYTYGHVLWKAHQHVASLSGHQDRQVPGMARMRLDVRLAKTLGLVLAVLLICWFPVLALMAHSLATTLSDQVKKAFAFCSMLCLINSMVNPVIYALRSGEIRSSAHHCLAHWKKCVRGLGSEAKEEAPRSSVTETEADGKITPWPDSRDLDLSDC
T1 sequence (P21554 whole entry): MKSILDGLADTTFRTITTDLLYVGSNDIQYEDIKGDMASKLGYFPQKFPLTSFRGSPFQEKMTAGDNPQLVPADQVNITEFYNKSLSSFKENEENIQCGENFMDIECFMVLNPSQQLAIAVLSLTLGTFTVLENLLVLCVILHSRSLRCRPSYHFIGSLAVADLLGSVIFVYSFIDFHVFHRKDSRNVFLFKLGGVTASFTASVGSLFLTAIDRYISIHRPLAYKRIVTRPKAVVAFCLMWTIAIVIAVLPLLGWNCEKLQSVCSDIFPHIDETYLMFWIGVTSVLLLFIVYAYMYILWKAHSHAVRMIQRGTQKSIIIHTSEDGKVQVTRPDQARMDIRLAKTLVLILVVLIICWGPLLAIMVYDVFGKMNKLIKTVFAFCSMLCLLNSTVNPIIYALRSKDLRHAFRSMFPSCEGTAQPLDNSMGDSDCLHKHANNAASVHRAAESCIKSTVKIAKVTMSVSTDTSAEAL

Compound	inhibition at 10 µM (human CB1 receptor)	inhibition at 10 µM (human CB2 receptor)	% increase of ABCA1 at 3 μM (ABCA1 protein)
O=C(Nc1cnc(OCC(F)(F)F)c(C2CCCC2)c1)c1cccnc1 [Example 4, N-[5-cyclopentyl-6-(2,2,2-trifluoro-ethoxy)-pyridin-3-yl]-nicotinamide]	34%	2%	>45% @ 3 μM
Cc1cc(C(=O)Nc2cnc(OCC(F)(F)F)c(C3CCCC3)c2)[nH]n1 [Example 2, 5-methyl-2H-pyrazole-3-carboxylic acid [5-cyclopentyl-6-(2,2,2-trifluoro-ethoxy)-pyridin-3-yl]-amide]	22%	-12%	>45% @ 3 μM
Cc1ocnc1C(=O)Nc1cnc(OCC(F)(F)F)c(C2CCCC2)c1 [Example 3, 5-methyl-oxazole-4-carboxylic acid [5-cyclopentyl-6-(2,2,2-trifluoro-ethoxy)-pyridin-3-yl]-amide]	26%	0%	>45% @ 3 μM
COc1cncc(C(=O)Nc2cnc(OCC(F)(F)F)c(C3CCCC3)c2)c1 [Example 1, N-[5-cyclopentyl-6-(2,2,2-trifluoro-ethoxy)-pyridin-3-yl]-5-methoxy-nicotinamide]	4%	-9%	>45% @ 3 μM
O=C(Nc1cnc(OCC(F)(F)F)c(C2CCCC2)c1)c1ccccn1 [Example 5, pyridine-2-carboxylic acid [5-cyclopentyl-6-(2,2,2-trifluoro-ethoxy)-pyridin-3-yl]-amide]	28%	-8%	>45% @ 3 μM
O=C(Nc1cnc(OCC(F)(F)F)c(C2CCCC2)c1)c1ccccc1 [Example 6, N-[5-cyclopentyl-6-(2,2,2-trifluoro-ethoxy)-pyridin-3-yl]-benzamide]	40%	-5%	>45% @ 3 μM

Now from value to compound, other results behind:

inhibition at 10 µM (human CB1 receptor)	inhibition at 10 µM (human CB2 receptor)	Compound	% increase of ABCA1 at 3 μM (ABCA1 protein)
27%	-9%	Cc1cc(C(=O)Nc2cnc(OCC(F)(F)F)c(C3CCCCC3)c2)[nH]n1 [Example 9, 5-methyl-2H-pyrazole-3-carboxylic acid [5-cyclohexyl-6-(2,2,2-trifluoro-ethoxy)-pyridin-3-yl]-amide]	>45% @ 3 μM
19%	-13%	COc1cncc(C(=O)Nc2cnc(OCC(F)(F)F)c(C3CCCCC3)c2)c1 [Example 12, N-[5-cyclohexyl-6-(2,2,2-trifluoro-ethoxy)-pyridin-3-yl]-5-methoxy-nicotinamide]	>45% @ 3 μM
38%	-13%	O=C(Nc1cnc(OCC(F)(F)F)c(C2CCCCC2)c1)c1ccccc1 [Example 13, N-[5-cyclohexyl-6-(2,2,2-trifluoro-ethoxy)-pyridin-3-yl]-benzamide]	>45% @ 3 μM
33%	3%	O=C(Nc1cnc(OCC(F)(F)F)c(C2CCCCC2)c1)c1ccccn1 [Example 11, pyridine-2-carboxylic acid [5-cyclohexyl-6-(2,2,2-trifluoro-ethoxy)-pyridin-3-yl]-amide]	>45% @ 3 μM
13%	-8%	Cc1ocnc1C(=O)Nc1cnc(OCC(F)(F)F)c(C2CCCCC2)c1 [Example 10, 5-methyl-oxazole-4-carboxylic acid [5-cyclohexyl-6-(2,2,2-trifluoro-ethoxy)-pyridin-3-yl]-amide]	>45% @ 3 μM
21%	-12%	O=C(Nc1cnc(OCC(F)(F)F)c(C2CCCC2)c1)c1cncnc1 [Example 7, pyrimidine-5-carboxylic acid [5-cyclopentyl-6-(2,2,2-trifluoro-ethoxy)-pyridin-3-yl]-amide]	>45% @ 3 μM
28%	-13%	O=C(Nc1cnc(OCC(F)(F)F)c(C2CCCCC2)c1)c1cccnc1 [Example 8, N-[5-cyclohexyl-6-(2,2,2-trifluoro-ethoxy)-pyridin-3-yl]-nicotinamide]	>45% @ 3 μM
